{"source": "patent US20240142438A1", "about": "“MULTI-ORGAN MODEL” (CELLARTGEN INC., priority 2021, published 2024)", "key": {"[1]": {"test_system": "liver organoid", "assay": "Candidate drugs on liver organoid in multi-organ NASH organoid model (chip)", "assay_type": "cell-based, mouse", "details": "oleic acid 500 μM + drug 50 μM, 3 days; for low-density cholesterol (LDL) levels in the liver organoids: cholesterol analysis of disrupted organoids, vs No Treatment (NT)", "procedure": "(§1) A multi-organ NASH model was constructed by applying not only conventional Matrigel, a commercially available culture scaffold, but also a decellularized tissue-derived hydrogel scaffold to culture of each organoid in a multi-organ device. Liver and pancreas organoids were obtained by extracting adult stem cells from a mouse tissue, encapsulated in a decellularized liver tissue-derived matrix (6 mg/ml) and a decellularized pancreas tissue-derived matrix (4 mg/ml), respectively, at a cell density of 70,000 cells/30 μL gel, and cultured. An intestinal organoid was obtained by extracting intestinal crypts from a mouse intestinal tissue and encapsulated in a decellularized intestinal tissue-derived matrix (2 mg/ml) at a cell density of 800 crypts/30 μL gel, and cultured. […] The cardiac organoid was cultured on a hydrogel (20 organoids/70 μL gel bed) prepared by crosslinking of a decellularized cardiac tissue-derived matrix (5 mg/ml) in the form of a 70 μL gel bed at the bottom of the device. The decellularized matrix for culturing each organoid was applied at the optimal concentration for differentiation of each organoid as determined through previous research.\nObeticholic acid (OCA), a semi-synthetic bile acid analog, is an agonist for FXR (farnesoid X receptor) to regulate bile acid metabolism, inflammation, fibrosis, and sugar/lipid metabolism. […] Elafibranor (Ela), a dual agonist for PPARα/δ, is a drug that inhibits fatty acid biosynthesis and glucose biosynthesis in the liver and has been used as a drug for cardiometabolic diseases. Liraglutide (Lira), an agonist for glucagon-like peptide-1 (GLP-1), is a drug that has been used to treat diabetes."}, "[2]": {"test_system": "intestinal organoid", "assay": "Candidate drugs on intestinal organoid in multi-organ NASH organoid model (chip)", "assay_type": "cell-based, mouse", "details": "oleic acid 500 μM + drug 50 μM, 3 days in liver chamber", "procedure": "as §1"}, "[3]": {"test_system": "cardiac organoid", "assay": "Candidate drugs on cardiac organoid in multi-organ NASH organoid model (chip)", "assay_type": "cell-based, mouse", "details": "oleic acid 500 μM + drug 50 μM, 3 days in liver chamber", "procedure": "as §1"}, "[4]": {"test_system": "pancreas organoid", "assay": "Candidate drugs on pancreas organoid in multi-organ NASH organoid model (chip)", "assay_type": "cell-based, mouse", "details": "oleic acid 500 μM + drug 50 μM, 3 days in liver chamber", "procedure": "as §1"}, "[5]": {"test_system": "human iPSC-derived liver organoids", "assay": "Candidate drugs on hiPSC-derived liver organoids in multi-organ NASH model", "assay_type": "cell-based", "details": "oleic acid 500 μM + drug 50 μM, 3 days", "description": "Human iPSC-derived liver organoids were differentiated into hepatic endoderm cells through endoderm, and then a total of 500,000 cells including the hepatic endoderm cells, vascular endothelial cells (HUVEC) and mesenchymal stem cells (hMSC) at a ratio of 10:7:2 were mixed in 10 μL of culture medium. The mixture was coated onto 10 μL of a decellularized liver tissue-derived matrix (LEM) to induce the formation of three-dimensional organoids. […] Human iPSC-derived pancreas organoids were differentiated into beta cells through endoderm, gut endoderm, pancreatic endoderm, and pancreatic progenitor cells, and then a total of 500,000 cells including the beta cells, vascular endothelial cells (HUVEC) and mesenchymal stem cells (hMSC) at a ratio of 10:7:2 were mixed in 10 μL of culture medium. The mixture was coated onto 10 μL of a decellularized pancreas tissue-derived matrix (PEM) to induce the formation of three-dimensional organoids. […] Each organoids cultured in a decellularized tissue-derived matrix was seeded into a multi-organ microfluidic device and then cultured in a normal culture medium suitable for each organ for 2 days. Then, the NASH group was treated with oleic acid (500 μM) and cultured for 3 days only in the chamber in which the liver organoid was cultured, and the groups treated with the respective drugs were treated with oleic acid (500 μM) and the respective drugs (50 μM) for 3 days in the chamber in which the liver organoid was cultured. A multi-organ device in which a normal liver organoid (Normal) not treated with the fatty acid was used as a control group."}, "[6]": {"test_system": "human iPSC-derived pancreas organoids", "details": "immunofluorescence staining; oleic acid 500 μM + drug 50 μM, 3 days in liver chamber", "description": "Human iPSC-derived liver organoids were differentiated into hepatic endoderm cells through endoderm, and then a total of 500,000 cells including the hepatic endoderm cells, vascular endothelial cells (HUVEC) and mesenchymal stem cells (hMSC) at a ratio of 10:7:2 were mixed in 10 μL of culture medium. The mixture was coated onto 10 μL of a decellularized liver tissue-derived matrix (LEM) to induce the formation of three-dimensional organoids. […] Human iPSC-derived pancreas organoids were differentiated into beta cells through endoderm, gut endoderm, pancreatic endoderm, and pancreatic progenitor cells, and then a total of 500,000 cells including the beta cells, vascular endothelial cells (HUVEC) and mesenchymal stem cells (hMSC) at a ratio of 10:7:2 were mixed in 10 μL of culture medium. The mixture was coated onto 10 μL of a decellularized pancreas tissue-derived matrix (PEM) to induce the formation of three-dimensional organoids. […] Each organoids cultured in a decellularized tissue-derived matrix was seeded into a multi-organ microfluidic device and then cultured in a normal culture medium suitable for each organ for 2 days. […]"}, "[7]": {"test_system": "human iPSC-derived intestinal organoids", "details": "immunofluorescence staining, oleic acid 500 μM + drug 50 μM, 3 days in liver chamber", "description": "(§2) Human iPSC-derived intestinal organoids were differentiated into hindgut spheroids through endoderm, encapsulated in Matrigel, and matured for about 20 to 30 days. The mature intestinal organoids were extracted from Matrigel, re-encapsulated in a decellularized intestinal tissue-derived matrix\n(§3) (IEM), and further cultured. […] Human iPSC-derived cardiac organoids were induced to mature into cardiomyocytes through mesenchyma and cardiac progenitor cells, and then 400,000 cells were mixed in 20 μL of a decellularized heart tissue-derived matrix (HEM) to prepare three-dimensional organoids. […] Each organoids cultured in a decellularized tissue-derived matrix was seeded into a multi-organ microfluidic device and then cultured in a normal culture medium suitable for each organ for 2 days. Then, the NASH group was treated with oleic acid (500 μM) and cultured for 3 days only in the chamber in which the liver organoid was cultured, and the groups treated with the respective drugs were treated with oleic acid (500 μM) and the respective drugs (50 μM) for 3 days in the chamber in which the liver organoid was cultured. A multi-organ device in which a normal liver organoid (Normal) not treated with the fatty acid was used as a control group."}, "[8]": {"test_system": "human iPSC-derived cardiac organoids", "details": "immunofluorescence staining; oleic acid 500 μM + drug 50 μM, 3 days in liver chamber", "description": "as §2, §3"}}, "note": "“Also recorded” adds a separate entry of the source.", "data": [{"smiles": "CSc1ccc(C(=O)/C=C/c2cc(C)c(OC(C)(C)C(=O)O)c(C)c2)cc1", "note": "[Ela, Elafibranor]", "values": [{"measurement": "low-density cholesterol (LDL) levels in the liver organoids", "setting": "[1]", "value": "an improvement in LDL levels compared to the No Treatment (NT) group; also recorded: a greater improvement than Lira"}, {"measurement": "expression level of α-SMA, a fibrosis marker (fibrosis)", "setting": "[1]; immunofluorescence staining", "value": "improved the most"}, {"measurement": "COL1A1 expression", "setting": "[1]; quantitative PCR", "value": "remarkably effective in reducing the increased expression of COL1A1"}, {"measurement": "expression levels of HNF4A and ALB, hepatic differentiation markers", "setting": "[1]; quantitative PCR", "value": "no significant effect on hepatic differentiation and functional recovery"}, {"measurement": "expression of α-SMA and COL1A1, fibrosis and drug toxicity-related markers", "setting": "[1]; quantitative PCR", "value": "improved"}, {"measurement": "expression level of OCLN, a tight junction marker of the gut barrier", "setting": "[2]; quantitative PCR", "value": "not improved"}, {"measurement": "expression levels of CHGA and MUC2, intestinal differentiation markers", "setting": "[2]; quantitative PCR", "value": "not much recovered; also recorded: lower in the Ela-treated group than in No Treatment (NT) group"}, {"measurement": "expression of CTNT and F-actin, myocardial differentiation and actin-filament markers", "setting": "[3]; immunostaining", "value": "recovered to some extent"}, {"measurement": "expression level of ACTC1, a cardiac differentiation marker", "setting": "[3]; quantitative PCR", "value": "recovered"}]}, {"smiles": "O=C1[C@H](CC[C@H](O)c2ccc(F)cc2)[C@@H](c2ccc(O)cc2)N1c1ccc(F)cc1", "note": "[Eze, Ezetimibe]", "values": [{"measurement": "low-density cholesterol (LDL) levels in the liver organoids", "setting": "[1]", "value": "significantly lower than those in the No Treatment (NT) group"}, {"measurement": "expression levels of HNF4A and ALB, hepatic differentiation markers", "setting": "[1]; quantitative PCR", "value": "recovered to some extent"}, {"measurement": "expression of α-SMA and COL1A1, fibrosis and drug toxicity-related markers", "setting": "[1]; quantitative PCR", "value": "improved"}, {"measurement": "expression of NPC1L1", "setting": "[2]; immunostaining", "value": "the most significant decrease in expression"}, {"measurement": "expression level of OCLN, a tight junction marker of the gut barrier", "setting": "[2]; quantitative PCR", "value": "recovered to some extent"}, {"measurement": "expression levels of CHGA and MUC2, intestinal differentiation markers", "setting": "[2]; quantitative PCR", "value": "not much recovered"}, {"measurement": "gene expression of FGF15 in the intestinal organoid", "setting": "[2]; quantitative PCR", "value": "recovered to some extent"}, {"measurement": "expression level of KRT19, a pancreatic exocrine cell marker", "setting": "[4]; quantitative PCR", "value": "recovered to some extent"}, {"measurement": "expression level of PDX1, an endocrine cell marker", "setting": "[4]; quantitative PCR", "value": "not recovered"}, {"measurement": "expression level of ACTC1, a cardiac differentiation marker", "setting": "[3]; quantitative PCR", "value": "limitations in improving cardiac differentiation/functionality"}, {"measurement": "expression level of FGF19", "setting": "[5]; immunofluorescence staining", "value": "recovered only in the OCA-treated group"}, {"measurement": "expression level of α-SMA, a fibrosis and drug toxicity-related marker", "setting": "[5]; immunofluorescence staining", "value": "decreased to some extent"}, {"measurement": "fatty acid accumulation (BODIPY staining)", "setting": "[5]", "value": "partially decreased"}, {"measurement": "structure of the liver organoids", "setting": "[5]; optical microscopy", "value": "some of the cells in the outer part died"}, {"measurement": "expression levels of insulin and NKX6.1, pancreatic differentiation markers", "setting": "[6]", "value": "less significantly recovered"}, {"measurement": "expression level of NPC1L1", "setting": "[7]", "value": "decreased"}, {"measurement": "expression level of the differentiation marker, MUC2", "setting": "[7]; vs No Treatment group", "value": "recovered to some extent"}, {"measurement": "expression levels of CTNT and F-actin, myocardial differentiation and actin-filament markers", "setting": "[8]", "value": "recovered to some extent"}]}, {"smiles": "CCCCCCCCCCCCCCCC(=O)N[C@@H](CCC(=O)NCCCC[C@H](NC(=O)[C@H](C)NC(=O)[C@H](C)NC(=O)[C@H](CCC(N)=O)NC(=O)CNC(=O)[C@H](CCC(=O)O)NC(=O)[C@H](CC(C)C)NC(=O)[C@H](Cc1ccc(O)cc1)NC(=O)[C@H](CO)NC(=O)[C@H](CO)NC(=O)[C@@H](NC(=O)[C@H](CC(=O)O)NC(=O)[C@H](CO)NC(=O)[C@@H](NC(=O)[C@H](Cc1ccccc1)NC(=O)[C@@H](NC(=O)CNC(=O)[C@H](CCC(=O)O)NC(=O)[C@H](C)NC(=O)[C@@H](N)Cc1cnc[nH]1)[C@@H](C)O)[C@@H](C)O)C(C)C)C(=O)N[C@@H](CCC(=O)O)C(=O)N[C@@H](Cc1ccccc1)C(=O)N[C@H](C(=O)N[C@@H](C)C(=O)N[C@@H](Cc1c[nH]c2ccccc12)C(=O)N[C@@H](CC(C)C)C(=O)N[C@H](C(=O)N[C@@H](CCCNC(=N)N)C(=O)NCC(=O)N[C@@H](CCCNC(=N)N)C(=O)NCC(=O)O)C(C)C)[C@@H](C)CC)C(=O)O", "note": "[Lira, Liraglutide]", "values": [{"measurement": "gut barrier and budding of the intestinal organoid", "setting": "[2]; optical microscopy", "value": "the gut barrier was maintained to some extent but organoid budding hardly occurred"}, {"measurement": "epithelial lumen of the pancreas organoids", "setting": "[4]; optical microscopy", "value": "increased in thickness, showing the pattern of early fibrosis"}, {"measurement": "expression level of α-SMA, a fibrosis and drug toxicity-related marker", "setting": "[4]; quantitative PCR", "value": "pancreatitis and fibrosis were reduced"}, {"measurement": "expression level of α-SMA, a fibrosis and drug toxicity-related marker", "setting": "[3]; immunostaining", "value": "fibrosis was not improved"}, {"measurement": "shape of the cardiac organoids", "setting": "[3]; optical microscopy", "value": "some cells inside the organoids died, inducing severe cardiotoxicity"}, {"measurement": "expression level of α-SMA, a fibrosis and drug toxicity-related marker (fibrosis)", "setting": "[3]; quantitative PCR", "value": "fibrosis tended to worsen"}]}]}
